Species on record: Rattus norvegicus
Experiment: DrugMatrix - Regimen: Daily Repeat
Type: toxicity, organism-based, Sprague-Dawley
Design: regimen Daily Repeat, gender Male, age 6-8 weeks
Details: in vivo, po, route oral GAVAGE, vehicle 100 % WATER; for ABSOLUTE BASOPHIL / ABSOLUTE EOSINOPHIL / ABSOLUTE LYMPHOCYTE / ABSOLUTE MONOCYTE / ABSOLUTE SEGMENTED NEUTROPHIL / BASOPHIL / EOSINOPHIL / ERYTHROCYTE COUNT / HEMATOCRIT / HEMOGLOBIN / LEUKOCYTE COUNT / LYMPHOCYTE / MEAN CORPUSCULAR HEMOGLOBIN / MEAN CORPUSCULAR HEMOGLOBIN CONCENTRATION / MEAN CORPUSCULAR VOLUME / MONOCYTE / NEUTROPHIL / NUCLEATED RED BLOOD CELLS / PLATELET COUNT: tissue Blood; for ALANINE AMINOTRANSFERASE / ALBUMIN / ALKALINE PHOSPHATASE / ASPARTATE AMINOTRANSFERASE / BLOOD UREA NITROGEN / CARBON DIOXIDE / CHLORIDE / CHOLESTEROL / CREATINE PHOSPHOKINASE / CREATININE / GLUCOSE / LACTATE DEHYDROGENASE / LIPASE / PHOSPHORUS / POTASSIUM / SODIUM / TOTAL BILIRUBIN / TOTAL PROTEIN / URIC ACID: tissue Plasma
[1] = 28 mg/kg, 120 h, dose level Low, time 5 day
[2] = 1500 mg/kg, 72 h, dose level High, time 3 day
[3] = 1500 mg/kg, 120 h, dose level High, time 5 day

CS(=O)(=O)c1ccc([C@@H](O)[C@@H](CO)NC(=O)C(Cl)Cl)cc1 [THIAMPHENICOL]
ABSOLUTE BASOPHIL [1]: 0 CELLS/uL
ABSOLUTE EOSINOPHIL [1]: 95.33 CELLS/uL
ABSOLUTE LYMPHOCYTE [1]: 6576.67 CELLS/uL
ABSOLUTE MONOCYTE [1]: 0 CELLS/uL
ABSOLUTE SEGMENTED NEUTROPHIL [1]: 828 CELLS/uL
BASOPHIL [1]: 0%
EOSINOPHIL [1]: 1.33%
ERYTHROCYTE COUNT [1]: 5.62 x10E6/uL
HEMATOCRIT [1]: 36.03%
HEMOGLOBIN [1]: 13.5 G/DL
LEUKOCYTE COUNT [1]: 7.5 x10E3/uL
LYMPHOCYTE [1]: 87.67%
MEAN CORPUSCULAR HEMOGLOBIN [1]: 24.03 pg
MEAN CORPUSCULAR HEMOGLOBIN CONCENTRATION [1]: 37.47 G/DL
MEAN CORPUSCULAR VOLUME [1]: 64.07 fL
MONOCYTE [1]: 0%
NEUTROPHIL [1]: 11%
NUCLEATED RED BLOOD CELLS [1]: 0 /100WBC
PLATELET COUNT [1]: 1264 x10E3/uL
ALANINE AMINOTRANSFERASE [1]: 51 u/L
ALBUMIN [1]: 4.33 G/DL
ALKALINE PHOSPHATASE [1]: 379.67 u/L
ASPARTATE AMINOTRANSFERASE [1]: 78 u/L
BLOOD UREA NITROGEN [1]: 15 mg/dL
CARBON DIOXIDE [1]: 28 mmol/L
CHLORIDE [1]: 101 MEQ/L
CHOLESTEROL [1]: 82.67 mg/dL
CREATINE PHOSPHOKINASE [1]: 219 u/L
CREATININE [1]: 0.19 mg/dL
GLUCOSE [1]: 146.67 mg/dL
LACTATE DEHYDROGENASE [1]: 121 u/L
LIPASE [1]: 8.33 u/L
PHOSPHORUS [1]: 12.2 mg/dL
POTASSIUM [1]: 5.86 MEQ/L
SODIUM [1]: 148.13 MEQ/L
TOTAL BILIRUBIN [1]: 0.23 mg/dL
TOTAL PROTEIN [1]: 6.37 G/DL
URIC ACID [1]: 1.07 mg/dL
ABSOLUTE BASOPHIL [2]: 0 CELLS/uL
ABSOLUTE EOSINOPHIL [2]: 242.33 CELLS/uL
ABSOLUTE LYMPHOCYTE [2]: 11370.67 CELLS/uL
ABSOLUTE MONOCYTE [2]: 0 CELLS/uL
ABSOLUTE SEGMENTED NEUTROPHIL [2]: 1353.67 CELLS/uL
BASOPHIL [2]: 0%
EOSINOPHIL [2]: 1.67%
ERYTHROCYTE COUNT [2]: 4.88 x10E6/uL
HEMATOCRIT [2]: 32.03%
HEMOGLOBIN [2]: 12.37 G/DL
LEUKOCYTE COUNT [2]: 12.97 x10E3/uL
LYMPHOCYTE [2]: 87.67%
MEAN CORPUSCULAR HEMOGLOBIN [2]: 25.37 pg
MEAN CORPUSCULAR HEMOGLOBIN CONCENTRATION [2]: 38.6 G/DL
MEAN CORPUSCULAR VOLUME [2]: 65.7 fL
MONOCYTE [2]: 0%
NEUTROPHIL [2]: 10.67%
NUCLEATED RED BLOOD CELLS [2]: 0 /100WBC
PLATELET COUNT [2]: 1202.33 x10E3/uL
ALANINE AMINOTRANSFERASE [2]: 42.67 u/L
ALBUMIN [2]: 4.27 G/DL
ALKALINE PHOSPHATASE [2]: 298 u/L
ASPARTATE AMINOTRANSFERASE [2]: 82 u/L
BLOOD UREA NITROGEN [2]: 18 mg/dL
CARBON DIOXIDE [2]: 24.33 mmol/L
CHLORIDE [2]: 110.67 MEQ/L
CHOLESTEROL [2]: 82.67 mg/dL
CREATINE PHOSPHOKINASE [2]: 343.67 u/L
CREATININE [2]: 0.16 mg/dL
GLUCOSE [2]: 201 mg/dL
LACTATE DEHYDROGENASE [2]: 99 u/L
LIPASE [2]: 8.33 u/L
PHOSPHORUS [2]: 12 mg/dL
POTASSIUM [2]: 5.55 MEQ/L
SODIUM [2]: 148.1 MEQ/L
TOTAL BILIRUBIN [2]: 0.1 mg/dL
TOTAL PROTEIN [2]: 5.8 G/DL
URIC ACID [2]: 2.17 mg/dL
ABSOLUTE BASOPHIL [3]: 0 CELLS/uL
ABSOLUTE EOSINOPHIL [3]: 0 CELLS/uL
ABSOLUTE LYMPHOCYTE [3]: 10293 CELLS/uL
ABSOLUTE MONOCYTE [3]: 39 CELLS/uL
ABSOLUTE SEGMENTED NEUTROPHIL [3]: 901.33 CELLS/uL
BASOPHIL [3]: 0%
EOSINOPHIL [3]: 0%
ERYTHROCYTE COUNT [3]: 5.44 x10E6/uL
HEMATOCRIT [3]: 34.1%
HEMOGLOBIN [3]: 13.07 G/DL
LEUKOCYTE COUNT [3]: 11.23 x10E3/uL
LYMPHOCYTE [3]: 91.67%
MEAN CORPUSCULAR HEMOGLOBIN [3]: 24.03 pg
MEAN CORPUSCULAR HEMOGLOBIN CONCENTRATION [3]: 38.33 G/DL
MEAN CORPUSCULAR VOLUME [3]: 62.67 fL
MONOCYTE [3]: 0.33%
NEUTROPHIL [3]: 8%
NUCLEATED RED BLOOD CELLS [3]: 0 /100WBC
PLATELET COUNT [3]: 1190 x10E3/uL
ALANINE AMINOTRANSFERASE [3]: 44.33 u/L
ALBUMIN [3]: 4.33 G/DL
ALKALINE PHOSPHATASE [3]: 313.67 u/L
ASPARTATE AMINOTRANSFERASE [3]: 87 u/L
BLOOD UREA NITROGEN [3]: 21.33 mg/dL
CARBON DIOXIDE [3]: 24.33 mmol/L
CHLORIDE [3]: 103 MEQ/L
CHOLESTEROL [3]: 75.67 mg/dL
CREATINE PHOSPHOKINASE [3]: 564.67 u/L
CREATININE [3]: 0.21 mg/dL
GLUCOSE [3]: 159 mg/dL
LACTATE DEHYDROGENASE [3]: 210 u/L
LIPASE [3]: 8.33 u/L
PHOSPHORUS [3]: 11.87 mg/dL
POTASSIUM [3]: 6.38 MEQ/L
SODIUM [3]: 144.57 MEQ/L
TOTAL BILIRUBIN [3]: 0.13 mg/dL
TOTAL PROTEIN [3]: 5.97 G/DL
URIC ACID [3]: 1.67 mg/dL

From ChEMBL document CHEMBL3885881, “DrugMatrix”
